Experimental data taken from US11945822B2, “Pyrazolo-triazine and/or pyrazolo-pxrimidine derivatives as selective inhibitor of cyclin dependent kinase” (QURIENT CO., LTD., priority 2018, dated 2024).

molecular target: T1, CDK1/Cyclin B (Homo sapiens, UniProt P06493); assay: Enzymatic assay for CDK1 (FRET based LANCE Ultra kinase assay); type: biochemical; details: read-out: CDK1 enzymatic activity (IC50 activity range)
T1 construct: purchased Invitrogen PR4768C
How it was run: (§1)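 LANCE Ultra TR-FRET: ULight-MBP peptide (68 nM) with ATP at Km, […], 60 min at 23° C. EDTA plus Eu-anti-phospho-MBP added, another 60 min, then 665/615 nm emission read. Compounds tested as 8-dose 4-fold DMSO dilutions.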

T1 sequence (P06493 whole entry): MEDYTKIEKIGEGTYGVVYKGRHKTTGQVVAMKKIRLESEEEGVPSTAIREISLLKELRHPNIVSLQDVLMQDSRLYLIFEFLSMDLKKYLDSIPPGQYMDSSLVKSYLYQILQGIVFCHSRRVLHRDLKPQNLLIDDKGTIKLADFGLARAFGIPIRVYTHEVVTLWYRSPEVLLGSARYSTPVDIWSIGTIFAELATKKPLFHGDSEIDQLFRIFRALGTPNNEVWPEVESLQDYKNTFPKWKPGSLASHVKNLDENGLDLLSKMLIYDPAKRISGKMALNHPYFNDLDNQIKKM
T1 sequence (P14635 whole entry partner): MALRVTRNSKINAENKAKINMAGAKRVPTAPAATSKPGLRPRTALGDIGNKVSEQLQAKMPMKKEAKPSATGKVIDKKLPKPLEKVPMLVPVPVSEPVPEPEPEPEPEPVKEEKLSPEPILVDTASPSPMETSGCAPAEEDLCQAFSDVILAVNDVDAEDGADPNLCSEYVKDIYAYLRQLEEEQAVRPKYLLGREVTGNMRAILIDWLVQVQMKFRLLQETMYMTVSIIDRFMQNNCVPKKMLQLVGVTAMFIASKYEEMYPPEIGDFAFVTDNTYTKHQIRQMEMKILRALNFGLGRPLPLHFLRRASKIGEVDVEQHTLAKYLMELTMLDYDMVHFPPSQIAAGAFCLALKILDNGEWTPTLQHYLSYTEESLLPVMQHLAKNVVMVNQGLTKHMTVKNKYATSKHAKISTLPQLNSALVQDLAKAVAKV

Row | IC50 | SMILES
1 | > 1 µM | CC(C)c1cnn2c(NCc3ccccc3-n3cccn3)nc(N3CCc4ncccc4C3)nc12 [Compound 275]
2 | > 1 µM | CC(C)c1cnn2c(NCc3cccc4ccc(C(C)(C)O)nc34)nc(N3CCC(N)CC3)nc12 [Compound 255]
3 | > 1 µM | CC(C)c1cnn2c(NCc3c(Cl)cccc3N3CC[C@H](C(C)(C)O)C3)nc(N3CCC(N)CC3)nc12 [Compound 250]

molecular target: T2, CDK2/Cyclin A (Homo sapiens, UniProt P24941); assay: Enzymatic assay for CDK2 (FRET based LANCE Ultra kinase assay); type: biochemical; details: read-out: CDK2 enzymatic activity (IC50 activity range)
T2 construct: purchased Invitrogen PV6290
How it was run: as §1

Row | IC50 | SMILES
4 | > 1 µM | CC(C)c1cnn2c(NCc3ccccc3-n3cccn3)nc(N3CCc4ncccc4C3)nc12 [Compound 275]
5 | > 1 µM | CC(C)c1cnn2c(NCc3cccc4ccc(C(C)(C)O)nc34)nc(N3CCC(N)CC3)nc12 [Compound 255]
6 | > 1 µM | CC(C)c1cnn2c(NCc3c(Cl)cccc3N3CC[C@H](C(C)(C)O)C3)nc(N3CCC(N)CC3)nc12 [Compound 250]

molecular target: T3, CDK5/p25 (Homo sapiens, UniProt Q00535); assay: Enzymatic assay for CDK5 (FRET based LANCE Ultra kinase assay); type: biochemical; details: read-out: CDK5 enzymatic activity (IC50 activity range)
T3 construct: purchased Invitrogen PR8543B
How it was run: as §1

T3 sequence (Q00535 whole entry): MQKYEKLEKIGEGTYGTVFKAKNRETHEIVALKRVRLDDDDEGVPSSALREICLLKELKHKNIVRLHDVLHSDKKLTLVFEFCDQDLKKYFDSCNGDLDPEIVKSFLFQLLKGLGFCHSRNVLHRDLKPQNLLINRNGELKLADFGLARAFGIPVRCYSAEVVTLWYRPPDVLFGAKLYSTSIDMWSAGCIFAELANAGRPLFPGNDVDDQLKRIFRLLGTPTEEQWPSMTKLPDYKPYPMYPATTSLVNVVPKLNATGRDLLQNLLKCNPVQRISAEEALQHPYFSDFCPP
T3 sequence (Q15078 99-307 partner limits assumed): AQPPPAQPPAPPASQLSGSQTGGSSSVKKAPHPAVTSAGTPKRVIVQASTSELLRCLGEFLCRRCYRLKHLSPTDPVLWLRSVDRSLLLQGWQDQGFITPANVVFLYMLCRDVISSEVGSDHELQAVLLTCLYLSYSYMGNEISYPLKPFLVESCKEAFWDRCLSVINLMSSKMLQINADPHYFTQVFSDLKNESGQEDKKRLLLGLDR

Row | IC50 | SMILES
7 | > 1 µM | CC(C)c1cnn2c(NCc3ccccc3-n3cccn3)nc(N3CCc4ncccc4C3)nc12 [Compound 275]
8 | 0.1 to 1 µM | CC(C)c1cnn2c(NCc3cccc4ccc(C(C)(C)O)nc34)nc(N3CCC(N)CC3)nc12 [Compound 255]
9 | > 1 µM | CC(C)c1cnn2c(NCc3c(Cl)cccc3N3CC[C@H](C(C)(C)O)C3)nc(N3CCC(N)CC3)nc12 [Compound 250]

molecular target: T4, CDK7/Cyclin H/MNAT1 (Homo sapiens, UniProt P50613); assay: Enzymatic assay for CDK7 (FRET based LANCE Ultra kinase assay); type: biochemical; details: CDK1/CDK7
T4 construct: purchased Invitrogen PR6749B
How it was run: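 LANCE Ultra TR-FRET kinase assay using a ULight-labeled peptide substrate and a Eu-labeled anti-phospho antibody, with ATP at its Km. Purified CDK/cyclin complex was added to compound after brief centrifugation.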

T4 sequence (P50613 whole entry): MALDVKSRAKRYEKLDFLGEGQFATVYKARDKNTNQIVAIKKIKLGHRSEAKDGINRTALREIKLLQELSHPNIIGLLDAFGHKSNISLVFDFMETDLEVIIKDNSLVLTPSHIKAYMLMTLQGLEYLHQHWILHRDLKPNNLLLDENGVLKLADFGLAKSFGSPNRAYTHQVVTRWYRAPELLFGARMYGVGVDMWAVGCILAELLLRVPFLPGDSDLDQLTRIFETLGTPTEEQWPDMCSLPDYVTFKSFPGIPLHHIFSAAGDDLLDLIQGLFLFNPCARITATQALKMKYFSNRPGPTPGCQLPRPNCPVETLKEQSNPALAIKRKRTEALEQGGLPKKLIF
T4 sequence (P51946 whole entry partner): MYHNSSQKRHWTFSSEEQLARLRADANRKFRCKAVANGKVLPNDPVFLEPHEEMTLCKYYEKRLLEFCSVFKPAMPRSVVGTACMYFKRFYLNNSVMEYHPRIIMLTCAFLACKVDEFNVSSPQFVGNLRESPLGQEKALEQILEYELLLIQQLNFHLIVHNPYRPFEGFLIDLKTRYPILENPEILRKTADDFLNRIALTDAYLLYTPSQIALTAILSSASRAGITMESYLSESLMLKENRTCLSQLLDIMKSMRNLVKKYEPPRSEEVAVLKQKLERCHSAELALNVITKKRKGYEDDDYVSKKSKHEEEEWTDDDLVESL
T4 sequence (P51948 whole entry partner): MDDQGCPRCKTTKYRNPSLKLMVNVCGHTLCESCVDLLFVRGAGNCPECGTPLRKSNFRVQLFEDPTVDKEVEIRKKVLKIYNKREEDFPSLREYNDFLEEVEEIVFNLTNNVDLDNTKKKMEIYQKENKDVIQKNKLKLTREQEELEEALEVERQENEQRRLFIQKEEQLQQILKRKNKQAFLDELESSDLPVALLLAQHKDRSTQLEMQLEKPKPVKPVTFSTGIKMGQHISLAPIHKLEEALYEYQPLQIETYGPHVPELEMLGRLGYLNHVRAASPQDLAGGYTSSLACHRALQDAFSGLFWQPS

Row | CDK1/CDK7: Selectivity of CDK7 inhibition over CDK1 inhibition | SMILES
10 | A (A=greater than 200 fold) | CC(C)c1cnn2c(NCc3ccccc3-n3cccn3)nc(N3CCc4ncccc4C3)nc12 [Compound 275]
11 | A (A=greater than 200 fold) | CC(C)c1cnn2c(NCc3cccc4ccc(C(C)(C)O)nc34)nc(N3CCC(N)CC3)nc12 [Compound 255]
12 | A (A=greater than 200 fold) | CC(C)c1cnn2c(NCc3c(Cl)cccc3N3CC[C@H](C(C)(C)O)C3)nc(N3CCC(N)CC3)nc12 [Compound 250]

same assay, conditions: CDK2/CDK7

Row | CDK2/CDK7: Selectivity of CDK7 inhibition over CDK2 inhibition | SMILES
13 | A (A=greater than 200 fold) | CC(C)c1cnn2c(NCc3cccc4ccc(C(C)(C)O)nc34)nc(N3CCC(N)CC3)nc12 [Compound 255]
14 | A (A=greater than 200 fold) | CC(C)c1cnn2c(NCc3c(Cl)cccc3N3CC[C@H](C(C)(C)O)C3)nc(N3CCC(N)CC3)nc12 [Compound 250]

Row | SMILES | CDK2/CDK7: Selectivity of CDK7 inhibition over CDK2 inhibition
15 | CC(C)c1cnn2c(NCc3ccccc3-n3cccn3)nc(N3CCc4ncccc4C3)nc12 [Compound 275] | B (B=less than 200 fold, but greater than 20 fold)

same assay, conditions: CDK5/CDK7

Row | SMILES | CDK5/CDK7: Selectivity of CDK7 inhibition over CDK5 inhibition
16 | CC(C)c1cnn2c(NCc3ccccc3-n3cccn3)nc(N3CCc4ncccc4C3)nc12 [Compound 275] | B (B=less than 200 fold, but greater than 20 fold)
17 | CC(C)c1cnn2c(NCc3cccc4ccc(C(C)(C)O)nc34)nc(N3CCC(N)CC3)nc12 [Compound 255] | B (B=less than 200 fold, but greater than 20 fold)
18 | CC(C)c1cnn2c(NCc3c(Cl)cccc3N3CC[C@H](C(C)(C)O)C3)nc(N3CCC(N)CC3)nc12 [Compound 250] | B (B=less than 200 fold, but greater than 20 fold)

same assay, conditions: read-out: CDK7 enzymatic activity (IC50 activity range)

Row | IC50 | SMILES
19 | < 0.1 µM | CC(C)c1cnn2c(NCc3ccccc3-n3cccn3)nc(N3CCc4ncccc4C3)nc12 [Compound 275]
20 | < 0.1 µM | CC(C)c1cnn2c(NCc3cccc4ccc(C(C)(C)O)nc34)nc(N3CCC(N)CC3)nc12 [Compound 255]
21 | < 0.1 µM | CC(C)c1cnn2c(NCc3c(Cl)cccc3N3CC[C@H](C(C)(C)O)C3)nc(N3CCC(N)CC3)nc12 [Compound 250]

test system: H460; assay: Cellular H460 viability assay (CellTiter-Glo, 72 hours); type: cell-based; details: Homo sapiens, NCI-H460
How it was run: (§2)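 Cells plated in 96 wells and exposed to compound 72 h at 37 °C, 5% CO2, final DMSO below 0.1%, DMSO control. Viability by CellTiter-Glo luminescence, duplicate.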

Row | IC50 | SMILES
22 | 1 to 10 µM | CC(C)c1cnn2c(NCc3ccccc3-n3cccn3)nc(N3CCc4ncccc4C3)nc12 [Compound 275]
23 | < 1 µM | CC(C)c1cnn2c(NCc3cccc4ccc(C(C)(C)O)nc34)nc(N3CCC(N)CC3)nc12 [Compound 255]
24 | 1 to 10 µM | CC(C)c1cnn2c(NCc3c(Cl)cccc3N3CC[C@H](C(C)(C)O)C3)nc(N3CCC(N)CC3)nc12 [Compound 250]

test system: MV4-11; assay: Cellular MV4-11 viability assay (CellTiter-Glo, 72 hours); type: cell-based; details: Homo sapiens
How it was run: as §2

Row | IC50 | SMILES
25 | 1 to 10 µM | CC(C)c1cnn2c(NCc3ccccc3-n3cccn3)nc(N3CCc4ncccc4C3)nc12 [Compound 275]
26 | < 1 µM | CC(C)c1cnn2c(NCc3cccc4ccc(C(C)(C)O)nc34)nc(N3CCC(N)CC3)nc12 [Compound 255]
27 | 1 to 10 µM | CC(C)c1cnn2c(NCc3c(Cl)cccc3N3CC[C@H](C(C)(C)O)C3)nc(N3CCC(N)CC3)nc12 [Compound 250]

test system: A2780; assay: Cellular A2780 viability assay (CellTiter-Glo, 72 hours); type: cell-based; details: Homo sapiens
From the text: Human T-cell acute lymphoblastic leukemia cell line, MOLT-4 (ATCC, Cat #CRL-1582), Human multiple myeloma cell line, RPMI-8226 (Invitrogen, Cat #22400-089) and MM.1S (ATCC, Cat #CRL-2974), NSCLC (Non-small cell lung cancer) cell line H460 (ATCC, Cat #HTB-177), Human colon colorectal carcinoma cell line HCT116 (ATCC, Cat #CCL-247), Human acute monocytic leukemia cell line MV4-11 (ATCC, Cat #CRL-9591), OVCAR-3 (ATCC, Cat #HTB-161) and A2780 (ECACC, Cat #93112519) were obtained from ATCC. Cells were grown in RPMI-1640 media (Invitrogen, Cat #22400-089) supplemented with 10% FBS (Invitrogen, Cat #10099141) and 1% penicillin/streptomycin (Invitrogen, Cat #15070063) and cultured at 37° C., 5% CO2 in a humidified chamber. All cell lines were routinely tested for mycoplasma.
The effect of the CDK7 inhibitor to inhibit the growth of target cancer cells was evaluated through the 72 hours time period of viability assay. Briefly, the candidate cell line ware plated in 96 well plate at the following density of cells respectively. 1×10^4 cells/well for MOLT-4, RPMI-8226, MV4-11 and MM.1S, 5×10^3 for H460, HCT116 and OVCAR-3 and IX 10^3 for A2780. After 24 hours, the cells were treated with various concentrations of the compound (ranging from 0.0015 uM to 10 uM). DMSO solvent without compound served as a control and final DMSO concentration less than 0.1%. After 72 hours of incubation at 37° C., 5% CO2 incubator, cells were analyzed for the viability using the CellTiter-Glo Luminescent Cell Viability Assay (Promega, Cat #G7570). All viability assays were performed in duplicate and Luminescence was read using an Envision (Perkin Elmer, USA). Data was analyzed using XLfit software.

Row | IC50 | SMILES
28 | 1 to 10 µM | CC(C)c1cnn2c(NCc3ccccc3-n3cccn3)nc(N3CCc4ncccc4C3)nc12 [Compound 275]
29 | ≤ 1 µM | CC(C)c1cnn2c(NCc3cccc4ccc(C(C)(C)O)nc34)nc(N3CCC(N)CC3)nc12 [Compound 255]
30 | 1 to 10 µM | CC(C)c1cnn2c(NCc3c(Cl)cccc3N3CC[C@H](C(C)(C)O)C3)nc(N3CCC(N)CC3)nc12 [Compound 250]
